Earlier results as cited in US20140147549A1, “CARBOHYDRATE BAR” (NESTEC S.A., priority 2008, published 2014).

Conditions: previous research data, single carbohydrate source alone

In the case of `O=C(CO)[C@@H](O)[C@H](O)[C@H](O)CO` [fructose], the “peak exogenous carbohydrate oxidation, single carbohydrate source” value is given as about 0.4 g/min.
